Data as given in patent US20100190957A1, “SPECIFIC THERAPY AND MEDICAMENT USING INTEGRIN LIGANDS FOR TREATING CANCER” (priority 2007, published 2010).
Several values for one entry are separate records, joined by “and”; a condition that tells them apart may be missing. Equal entries are not always repeated. Entries after “also recorded” stand apart in the source; their conditions may differ.

How the values were obtained:
[1] = test system: U251 human glioblastoma cells; assay: Rat orthotopic glioblastoma model, radiotherapy / cilengitide scheduling experiments (survival); type: in vivo, NIH rnu nude rats; set-up: key to Status at Date of Termination: Sick = moribund and removed from study; Healthy = indicates sampled for tissue at date shown, but alive at this point; Alive = surviving at time point shown; details: for Days Post Implant / Status at Date of Termination: per animal, listed as Rt + EMD; for Days Post Implant: at date of termination, plus 7 subsequent daily boluses, 4 mg/kg
Protocol: NIH rnu nude rats are anaesthetized, restrained, and injected intracerebrally 1 mm retro orbitally, 3mm to the right of the bregma and at a depth of 2.5 mm with 5×10E5 U251 human glioblastoma cells suspended in 10 ul of culture medium, using a #2701 Hamilton syringe fitted with a 26 gauge needle, essentially as previously described (Engebraaten et al., 1999). After 14 days, cilengitide (4 mg/kg) is given as an intraperitoneal bolus in PBS, at various time (8 h, 4 h, 2 h, 1 h) prior to a single treatment with single, collimated, dorsal-ventral beam of 6 MV x-rays, so that 95-100% of the central axis dose of 25 Gy hit the tumor volume (Kim et al., 1999). Each of the 7 subsequent days the animals also received an identical i.p. bolus of cilengitide. The animals are maintained under ad libitum food and drink until they become moribund, or are sampled for tissue analysis (in the t-4 and t-8 h groups, where the animals are healthy past 230 days post tumor injection). A Kaplan-Meier survival curve is calculated and plotted (FIG. 1) from the raw data (Table 1). All animals in the RT monotherapy group died by 120 d.

[2] = test system: recurrent glioblastoma (GBM); assay: Phase IIa trial of cilengitide single agent therapy in patients with recurrent glioblastoma
Protocol: (§6) Methods: In this multicenter, open-label, randomized, uncontrolled study, pts with GBM and measurable disease that had relapsed after previous therapy with temozolomide and radiotherapy were randomized to receive cilengitide at doses of either 500 mg or 2000 mg i.v., 2×/week, until progression. Histopathology diagnosis and MRI imaging were subject to independent blinded review. The primary endpoint was Progression Free Survival (PFS) at 6 months (mths). Secondary endpoints included response, survival, time to disease progression, safety, tolerability and pharmacokinetics.

[3] = test system: newly diagnosed glioblastoma (GBM); assay: Phase I/IIa trial of cilengitide and temozolomide with concomitant radiotherapy in newly diagnosed glioblastoma; type: in vivo, human
Protocol: Patients and methods: Fifty-two pts (PS 0-1: 92%, 2: 8%; median age 57 yrs) after biopsy (n=9/17%) or tumor resection (n=43/83%) were treated with standard TMZ/RT (Stupp et al. NEJM 2005). In addition Cilengitide (500 mg i.v., 2×/week) was started one week before TMZ/RT and given throughout for the duration of chemotherapy or until progression. Primary endpoint was progression free survival rate at 6 months (target: 65%). Patients were followed with MRI every 2 months. Histopathologic diagnosis and MRI imaging were independently reviewed, MGMT promotor methylation status was assessed in 45 (86.5%) pts.

various brain tumors = details: humans; cited from earlier work
[4] = test system: human umbilical vein endothelial cells (HUVECs); assay: Serum growth stimulation (proliferation) assay, Alamar Blue, HUVEC; type: cell-based
Protocol: (§1) The effect of integrin alpha V blocker EMD 121974 (Cilengitide) on the viability of human carcinoma cells were tested, in combination with vinorelbine and paclitaxel, respectively, in a cell viability assay, dependent on reduction of Alamar blue dye. Each agent alone could inhibiting carcinoma viability, used together the compounds show an advantagous and preferably synergistic inhibitory effect.
(§2) The methods established and described in detail previously (Goodman and Hahn a; b) were used to measure the effect of combinations of integrin inhibitors and chemotherapeutics on carcinoma cell and human endothelial cell proliferation.
(§3) Points were run in duplicate or in triplicate. Reagent blanks, containing media plus Alamar Blue without cells, were run on each plate. Blank values were subtracted from test values and were routinely 5-10% of uninhibited control values.
In the growth assay Cilengitide was tested in the range of 50 μM to 0.1 nM.
(§4) Chemotherapeutic agents and αv-integrin blockers were serially diluted alone or together (combination therapy). In some assays the chemotherapeutic agent was serially diluted alone or in combination with of alpha-v integrin blocker. Growth inhibition curves were plotted and a shift of the combination therapy curve to lower concentrations in relation to the single agent curves was interpreted as an additional effect, produced by combination versus monotherapy.
(§5) The αv-integrin competitive inhibitor Cilengitide (EMD 121974) was tested alone and in combination with vinorelbine in a serum growth stimulation assay using human carcinoma cells or human umbilical vein endothelial cells (HUVECs). In these assays cells are cultured in serum, or in an endothelial growth stimulation medium (Goodman & Hahn).

[5] = test system: recurrent glioblastoma (GBM); details: human, in vivo
Protocol: as §6

renal carcinoma (A498) = assay: Proliferation / cell viability assay, Alamar Blue, A498; type: cell-based, human; details: for EC50: Homo sapiens, A498, agent alone or + Cilengitide (2 μM constant)
Protocol: as §1, §2, §3, §4, §5
Cilengitide concentration is 2μM (constant).

NSCLC A549 = assay: Proliferation / cell viability assay, Alamar Blue, A549; type: cell-based, human; details: for EC50: Homo sapiens, A549, agent alone or + Cilengitide
Protocol: as §1, §2, §3, §4, §5

SCCHN (Detroit562) = assay: Proliferation assay, Detroit 562; type: cell-based, human; details: Cilengitide 2 μM (constant)
[6] = Homo sapiens, HUVEC, agent alone
[7] = Homo sapiens, HUVEC, in combination with 2 μM Cilengitide

With `CC(C)[C@H]1C(=O)N[C@@H](CCCN=C(N)N)C(=O)NCC(=O)N[C@@H](CC(=O)O)C(=O)N[C@H](Cc2ccccc2)C(=O)N1C` [Cilengitide, cyclo-(Arg-Gly-Asp-DPhe-NMeVal)] the “Days Post Implant” value ([1]; cilengitide bolus 4 mg/kg i.p. 1 hour pre-irradiation (Rt 25 Gy)) was 112 days and 113 days and 130 days and 141 days, the “Days Post Implant” value ([1]; cilengitide bolus 4 mg/kg i.p. 2 hours pre-irradiation (Rt 25 Gy)) was 120 days and 147 days and 162 days and 196 days and the “Days Post Implant” value ([1]; cilengitide bolus 4 mg/kg i.p. 4 hours pre-irradiation (Rt 25 Gy)) was 238 Days (2×) and 254 Days (2×). The “Days Post Implant” value ([1]; cilengitide bolus 4 mg/kg i.p. 8 hours pre-irradiation (Rt 25 Gy)) was 287 Days (2×) and 257 Days (2×), the “Status at Date of Termination” value ([1]; cilengitide 4 mg/kg 1 hour pre-irradiation (Rt 25 Gy)) was “(Sick) Sep. 1, 2005; also recorded: (Sick) Sep. 2, 2005; also recorded: (Sick) Sep. 19, 2005; also recorded: (Sick) Sep. 30, 2005” and the “Status at Date of Termination” value ([1]; cilengitide 4 mg/kg 2 hours pre-irradiation (Rt 25 Gy)) was “(Sick) Aug. 10, 2005; also recorded: (Sick) Sep. 6, 2005; also recorded: (Sick) Sep. 21, 2005; also recorded: (Sick) Oct. 25, 2005”. The “Status at Date of Termination” value ([1]; cilengitide 4 mg/kg 4 hours pre-irradiation (Rt 25 Gy)) was “(Healthy) Nov. 29, 2005; also recorded: (Alive) Dec. 15, 2005”, the “Status at Date of Termination” value ([1]; cilengitide 4 mg/kg 8 hours pre-irradiation (Rt 25 Gy)) was “(Alive) Dec. 15, 2005; also recorded: (Healthy) Nov. 15, 2005” and the “animals healthy past days post tumor injection” value ([1]; t-4 and t-8 h groups, cilengitide 4 mg/kg i.p. + 25 Gy) was over 230 days. The “12 mth overall survival (OS) rate” value ([2]; 500 mg arm) was 24.4%, the “median Overall Survival (mOS)” value ([2]; 500 mg arm, 95% CI 5.2-9.3 mths) was 6.5 mths and the “PFS rate at 6 mths” value ([2]; 500 mg or 2000 mg i.v. 2x/week, both arms, n=13/81 pts) was 16.1%. For the same compound, the “12 mth OS rate” value ([2]; 2000 mg arm) was 37.5%, the “median Overall Survival (mOS)” value ([2]; 2000 mg arm, 95% CI 6.3-15.7 mths) was 9.9 mths and the “grade 4 therapy related AEs” value ([2]; 500 and 2000 mg) was “No grade 4 therapy related AEs were reported”. For the same compound, the “Treatment related NCI CTC grade 3 adverse event: arthralgia/myalgia” value ([2]; at 500 mg) was 1 patient, the “Treatment related NCI CTC grade 3 adverse event: elevated liver enzymes” value ([2]; at 500 mg) was 1 patient and the “Treatment related NCI CTC grade 3 adverse event: weight increase/edema” value ([2]; at 2000 mg) was 1 patient. The “pts still progression-free and on treatment at the time the abstract was issued” value ([2]; both arms, six of 81 pts) was 7.4%, the “tolerability in single agent therapy” value ([2]; two dose levels (500 and 2000 mg)) was “tolerated well” and the “haematological grade 3 and 4 toxicity: neutropenia” value ([3]; Cilengitide 500 mg + TMZ/RT, 5/52) was 9.6%. For the same compound, the “haematological grade 3 and 4 toxicity: thrombocytopenia” value ([3]; Cilengitide 500 mg + TMZ/RT, 7/52) was 13.4%, the “haematological grade 3 and 4 toxicity: lymphopenia” value ([3]; Cilengitide 500 mg + TMZ/RT, 28/52) was 53.8% and the “Treatment related non-hematologic grade 3 toxicities, patients” value ([3]; Cilengitide 500 mg + TMZ/RT, n=3/52) was 5.7%. The “tolerability of the combination with TMZ/RT” value ([3]; Cilengitide 500 mg i.v. 2x/week + TMZ/RT) was “well tolerated”, the “patients progression free at 6 months (PFS-6)” value ([3]; Cilengitide 500 mg i.v. 2x/week added to standard TMZ/RT, 34/52, 95% CI 50.9-78.0%) was 65.4% and the “sigmoid perforation (grade 2)” value ([3]; patient with a history of sigmoid diverticulosis) was “One”. For the same compound, the PFS-6 rate ([3]; subgroup with methylated MGMT promoter (23/52), Cilengitide 500 mg + TMZ/RT, historical control 69%) was 91%, the PFS-6 rate ([3]; subgroup with unmethylated MGMT promotor (22/52), Cilengitide 500 mg + TMZ/RT, historical control 40%) was 40.9% and the “MTD / side effect profile” value (various brain tumors) was “no known MTD in humans”. For the same compound, the IC50 ([4]; agent alone) was 700 nM and the “CTC grade 2 cerebral hemorrhage” value [5] was “One”.

Work on `CC(=O)O[C@H]1C(=O)[C@@]2(C)[C@H]([C@H](OC(=O)c3ccccc3)[C@]3(O)C[C@H](OC(=O)[C@H](O)[C@@H](NC(=O)c4ccccc4)c4ccccc4)C(C)=C1C3(C)C)[C@]1(OC(C)=O)CO[C@@H]1C[C@@H]2O` [Paclitaxel] yielded an EC50 (renal carcinoma (A498)) of 100 nM, an IC50 [4, 6] of 10 nM and an IC50 [4, 7] of 0.05 nM. It also gave an EC50 (NSCLC A549) of 8 nM.

For `CCC1=C[C@@H]2CN(C1)Cc1c([nH]c3ccccc13)[C@@](C(=O)OC)(c1cc3c(cc1OC)N(C)[C@H]1[C@@](O)(C(=O)OC)[C@H](OC(C)=O)[C@]4(CC)C=CCN5CC[C@]31[C@@H]54)C2` [Vinorelbine], the “effect of combination with Cilengitide on SCCHN (Detroit562) cell proliferation” value (SCCHN (Detroit562)) was “synergistically enhanced”, the “effect of combination with Cilengitide on A498 cell proliferation” value (renal carcinoma (A498); Cilengitide constant at 2 μM) was “synergistically enhanced” and the EC50 (renal carcinoma (A498)) was 60 nM. The IC50 [4, 6] was 20 nM, the IC50 [4, 7] was 0.8 nM and the “effect of combination with Cilengitide on growth of A549” value (NSCLC A549) was “synergistically enhanced”. The EC50 (NSCLC A549) was 8 nM.
